Reference: patent US12606533B2, “3-phenylpropylamine derivative” (DAIICHI SANKYO COMPANY, LIMITED, priority 2023, dated 2026)

Columns and labels:
[1] = target: T1, SF-1 (Homo sapiens, UniProt Q13285); assay: SF1 degradation induction in NCI-H295R SF-1-HiBiT cells (HiBiT DC50); format: cell-based; settings: 24 hr, concentration that induces 50% degradation of SF-1
T1 construct: NCI-H295R SF-1-HiBiT cells with HiBiT tag knocked in at the endogenous SF1 locus; host or cells: NCI-H295R SF-1-HiBiT (knock-in at endogenous locus)
In short: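 NCI-H295R cells carrying HiBiT-tagged SF-1, plated and grown 24 hr, then exposed to serially diluted compounds for 24 hr at 37° C. Remaining SF-1 read by lytic HiBiT luminescence; degradation rate from treated vs compound-free signal, DC50 as concentration giving 50% degradation.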

[2] = test system: NCI-H295R cells; assay: Proliferation inhibitory action on NCI-H295R (CellTiter-Glo, 7 days); format: cell-based, human; settings: Homo sapiens, NCI-H295R, 168 h
In short: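 Compounds serially diluted in DMSO; cells seeded at 2×10^3 cells/well and cultured 7 days at 37° C, 5% CO2. CellTiter-Glo 2.0 luminescence read at day 0 and day 7; proliferation rate derived from compound-addition-day signal, untreated day-7 signal and treated day-7 signal.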

[3] = test system: NCI-H295R cell subcutaneous transplant model; assay: Antitumor activity against NCI-H295R cell subcutaneous transplant model (adrenocortical carcinoma); format: in vivo, mouse; settings: female NSG mice, oral 30 mg/kg/day QD x 10 to 11, day the test was terminated
Experimental: NCI-H295R cells were subcutaneously transplanted at 1.0 to 2.0×10^7 cells/head into the right flank of female NSG mice and, when the estimated tumor volume (major axis×minor axis×minor axis/2) reached 100 to 300 mm^3, the mice were divided into groups of 4 to 5 mice each such that no difference was present between groups. Female NSG mice were purchased from Charles River Japan Co., Ltd. From the day of grouping, each compound was orally administered at a dose of 30 mg/kg/day once a day for 10 to 11 consecutive days (QD×10 to 11). Individual estimated tumor volumes were measured from the day of grouping until 11 to 12 days after grouping (the day the test was terminated). To the vehicle-control group was administered 0.5% methylcellulose containing 6.2-6.4 mM mesylic acid.
The antitumor activity against the NCI-H295R cell subcutaneous transplant model in Experimental Example 5 was calculated by the following formula on the day the test was terminated.

[4] = test system: xenograft model derived from a prostate cancer patient; assay: Antitumor activity in human prostate cancer cell subcutaneous transplant model (patient-derived xenograft); format: in vivo, mouse; settings: male NSG mice, oral 100 mg/kg/day QD x 28 to 32, day of completion of test
Description: A xenograft model derived from a prostate cancer patient (obtained from the National Institute of Biomedical Innovation (NIBIO)) was used for antitumor evaluation. Tumors excised from seed mice were cut into about 4-5 mm squares and subcutaneously transplanted into the right flank of male NSG mice. On the fourth day after transplantation, the mice were divided into groups of 8 to 10 mice each to ensure uniformity of the seed mice. From the day of grouping, each compound was orally administered once a day at a dose of 100 mg/kg/day for 28 to 32 consecutive days (QD x 28 to 32). Individual estimated tumor volumes were measured from the day of grouping until the day after the final administration (the day of completion of test). To the vehicle-control group was administered 0.5% methylcellulose containing 21.3 mM mesylic acid.
The antitumor activity in the human prostate cancer cell subcutaneous transplant model was calculated by the following formula on the day of completion of each test.

[5] = test system: mouse uterus; assay: Inhibitory activity on normal mouse uterine weight (inhibitory action on estrogen activity); format: in vivo; settings: female NSG mice, oral 100 mg/kg/day QD x 8, 24 hr after final administration, relative to vehicle control group
Experimental: Female NSG mice were purchased from Charles River Japan, Inc. From the day of grouping, each compound was orally administered at a dose of 100 mg/kg/day once a day for 8 consecutive days (QD×8). To the vehicle-control group was administered 0.5% methylcellulose. 24 hr after the final administration, the wet weight of the mouse uterus was measured, and the relative uterine weight (%) to the vehicle control group was calculated by the following formula.
The relative uterine weight (unit: %) of the compound corresponding to each Example No. to the vehicle control group is shown in Table 100.

Row | Structure (SMILES) | DC50 [1] [nM] | GI50 [2] [nM] | tumor growth inhibition rate (%) [3] [%] | tumor growth inhibition rate (%) [4] [%] | relative uterine weight (%) [5] [%]
1 | COc1ccc([C@]2(CCN(Cc3ccc(C4=CC[C@H](CN5CCN(C(=O)c6ccc7c8c6NCCn8c(=O)n7C6CCC(=O)NC6=O)CC5)CC4)cc3)CC(C)(C)C(F)(F)F)CCOC(C)(C)C2)cc1 (stereo partly drawn) [BY7, 3-{7-[(4-{[(4R)-4′-{[{2-[(4R)-4-(4-Methoxyphenyl)-2,2-dimethyltetrahydro-2H-pyran-4-yl]ethyl)(3,3,3-trifluoro-2,2-dimethylpropyl)amino]methyl}-2,3,4,5-tetrahydro[biphenyl]-4-yl]methyl}piperazin-1-yl)carbonyl]-2-oxo-5,6-dihydro-4H-imidazo[1,5,4-de]quinoxalin-1(2H)-yl}piperidine-2,6-dione] | 7.3 | 54 | 118 | 38 | 42
2 | COc1ccc([C@]2(CCN(Cc3ccc(C4=CC[C@H](CN5CCN(C(=O)c6ccc7c8c6CCCn8c(=O)n7C6CCC(=O)NC6=O)CC5)CC4)cc3)CC(C)(C)C(F)(F)F)CCOC(C)(C)C2)cc1 (stereo partly drawn) [AW5, 3-{7-[(4-{[(4R)-4′-{[{2-[(4R)-4-(4-Methoxyphenyl)-2,2-dimethyltetrahydro-2H-pyran-4-yl]ethyl)(3,3,3-trifluoro-2,2-dimethylpropyl)amino]methyl}-2,3,4,5-tetrahydro[biphenyl]-4-yl]methyl}piperazin-1-yl)carbonyl]-2-oxo-5,6-dihydro-4H-imidazo[4,5,1-ij]quinolin-1(2H)-yl}piperidine-2,6-dione] | 12 | 85 | 109 | 10 | 74
3 | COc1ccc([C@]2(CCN(Cc3ccc(C4=CC[C@H](C(=O)N5CCC(Nc6ccc7c8c6CCCn8c(=O)n7C6CCC(=O)NC6=O)CC5)CC4)c(F)c3)CC(C)(C)C(F)(F)F)CCOC(C)(C)C2)cc1 (stereo partly drawn) [BK9, 3-{7-[(1-{[(4R)-2′-Fluoro-4′-{[{2-[(4R)-4-(4-methoxyphenyl)-2,2-dimethyltetrahydro-2H-pyran-4-yl]ethyl)(3,3,3-trifluoro-2,2-dimethylpropyl)amino]methyl}-2,3,4,5-tetrahydro[biphenyl]-4-yl]carbonyl}piperidin-4-yl)amino]-2-oxo-5,6-dihydro-4H-imidazo[4,5,1-ij]quinolin-1(2H)-yl}piperidine-2,6-dione] | 3.2 | 24 | 131 | 43 | 56
